Experimental data: PubChem BioAssay (NCI)
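48-hour exposure; five concentrations; linearly interpolated endpoints. GI50 is the concentration that inhibits growth by half. TGI marks complete inhibition of growth.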

Experiments:
Test in all cases: DTP human tumour cell line panel, 48 h
[1] = system: COLO 205 colon
[2] = system: OVCAR-4 ovarian
[3] = system: SNB-19 CNS
[4] = system: OVCAR-3 ovarian
[5] = system: ACHN renal
[6] = system: M19-MEL melanoma
[7] = system: DLD-1 colon
[8] = system: HOP-18 NSCLC
[9] = system: DMS 114 small cell lung
[10] = system: XF 498 CNS
[11] = system: SNB-78 CNS
[12] = system: LXFL 529 NSCLC
[13] = system: KM20L2 colon
[14] = system: DMS 273 small cell lung

Compound | TGI [1] [µM] | TGI [2] [µM] | TGI [3] [µM] | TGI [4] [µM] | TGI [5] [µM] | other results
CCOC(=O)[C@H]1C[C@@H](C(=O)c2ccccc2)N2N=C(c3ccc(Br)cc3)C=C[C@H]12 | > 100 | > 100 | > 100 | > 100 | > 100 | 
CCOC(=O)CNC(=O)C(CSC(=O)N(O)c1ccc(Br)cc1)NC(=O)CCC(N)C(=O)OCC (configuration not stated) | > 50 | > 50 | > 50 | > 50 | > 50 | 
CN1CC=C(OP(=O)(NCc2ccccc2)N(CCCl)CCCl)CC1 (configuration not stated) | > 100 | > 100 | > 100 | > 100 | > 100 | 
CCCCOC(=O)/C(CC(=O)C=C(C)C)=N\NS(=O)(=O)c1ccc(C)cc1 | > 100 | > 100 | > 100 | > 100 | > 100 | TGI [6]: > 100 µM; TGI [7]: > 100 µM; TGI [8]: > 100 µM; TGI [9]: > 100 µM; TGI [10]: > 100 µM; TGI [11]: > 100 µM; TGI [12]: > 100 µM; TGI [13]: > 100 µM
O=C1C(NCCc2cc(Br)c(O)c(Br)c2)=CC(=O)c2ncccc21 | 19.2 | 16.7 | 27.5 | 6.26 | 24.9 | 
CSC1=N/C(=C\c2cccs2)C(=O)N1CN1CCCCC1 | > 100 |  |  | > 100 | > 100 | 
CCOc1ccc(C2c3[nH]c4ccccc4c3CCN2C(=O)c2cccs2)cc1 (configuration not stated) | > 100 | > 100 | > 100 | > 100 | > 100 | 
CCCCCCCCCC(=O)OCC1(CO)C/C(=C/CC(C(C)C)C(C)C)C(=O)O1 (configuration not stated) | 28.7 | > 100 | > 100 | > 100 | > 100 | 
CCCCCCC(N)(CCCCCC)C(=O)Nn1c(C)ccc1C | > 100 | > 100 | > 100 | > 100 | > 100 | 
Cc1ccc(-c2c(C#N)c(-c3ccc(N(C)C)cc3)c(C#N)c(=O)n2NS(=O)(=O)c2ccccc2)cc1 | > 100 | > 100 | > 100 |  | > 100 | 
COc1ccc(CSCc2cc(OC)c(OC)c(OC)c2)cc1 | > 100 | > 100 | > 100 | > 100 | > 100 | 
CCC(=O)N(c1ccccc1)C(C)CN1CCC(O)(c2ccccc2)CC1 (configuration not stated) | > 100 | > 100 | > 100 | > 100 | > 100 | 
CCn1c(=O)c2c(=O)[nH][nH]c2c2ccccc21 | > 100 | > 100 | > 100 | > 100 | > 100 | 
Clc1cc(Cl)cc(N2N=C(c3cccc(Nc4ccncc4)c3)CC2c2ccccc2)c1 (configuration not stated) |  | 3.87 |  |  | 3.89 | GI50 [2]: 1.86 µM; GI50 [5]: 1.9 µM
NN/C(=N\S(=O)(=O)c1cc(Cl)c(Oc2ccc([N+](=O)[O-])cc2Cl)c(Cl)c1)Nc1ccc(Cl)cc1 | 29 | 57.1 | 62.4 | 33 | 67.4 | 
CCN(CC)c1ccc(/C=C/C2=NN(c3cccc(S(=O)(=O)O)c3)C3(C2)C(Cl)C(=O)N3c2nc3ccccc3s2)cc1 (configuration not stated) | 31.8 | 9.83 | 29.7 | 17.4 | 23.8 | 

Compound | TGI [1] [µM] | TGI [2] [µM] | TGI [3] [µM] | TGI [4] [µM] | TGI [5] [µM] | other results
O=C(O)CCC(=O)Nc1ccc2c(c1)S(=O)(=O)N(CC(=O)O)C2=O | > 100 | > 100 | > 100 | > 100 | > 100 | 
O=c1cc(-c2ccc(O)c(O)c2)oc2cc(OC3OC(CO)C(O)C(O)C3O)cc(O)c12 (configuration not stated) | > 100 | > 100 | > 100 | > 100 | > 100 | 
COc1ccc(NC=O)c(C(O)CCNC(C)=O)c1 (configuration not stated) | > 100 | > 100 | > 100 | > 100 | > 100 | 
O=C(Cc1ccccc1)N/N=C(/CCN1CCCC1)CC(c1ccccc1)c1c(O)c2ccccc2oc1=O (configuration not stated) | 57.5 | > 100 | > 100 | > 100 | > 100 | 
Cc1c(-c2ccccc2)c(-c2ccc(OCCN(C)C)cc2)n2ccccc12 | 3.08 | 26.1 | 25.3 | 26.1 | 27.8 | 
COc1ccc(/C=C/C(=O)NCC(NC(=O)/C=C/c2ccc(OC)c(OC)c2)C(=O)O)cc1OC (configuration not stated) | > 100 | > 100 | > 100 | > 100 | > 100 | 
CC(=O)c1c2c(cc3c1CC1(Cc4cc5c(cc4C1)CCC5)C3)CCC2 |  | > 100 | > 100 | > 100 | > 100 | 
Cc1ccc2c(c1)C(C1Cc3c(C)cccc3C1=O)OC2=O (configuration not stated) | > 100 | > 100 | > 100 | > 100 | > 100 | 
O=C(Nc1ccccc1)N1CCNC1=S | > 100 | > 100 |  | > 100 | > 100 | 
Cn1c(=O)nc2n(CCO)c(-c3ccccc3)c(-c3ccccc3)nc-2c1=O | > 100 | > 100 | > 100 | > 100 | > 100 | 
CC(=O)OC1[C@H]2c3cc4c(cc3CN3CCC(C[C@@H]1OC(C)=O)C23)OCO4 (some centres not stated) | > 75 |  | > 75 | > 75 | > 75 | TGI [6]: > 75 µM; TGI [7]: > 75 µM; TGI [9]: > 75 µM; TGI [14]: > 75 µM; TGI [11]: > 75 µM; TGI [12]: > 75 µM; TGI [13]: > 75 µM
O=C(/C=C/c1ccc(O)c(O)c1)NC(CO)C(=O)O (configuration not stated) | > 100 | > 100 | > 100 | > 100 | > 100 | 
CCCOC(=O)c1cc(C(=CCC[C@H]2CC[C@@]3(C)[C@@H](CC[C@@H]4[C@@H]3CC[C@]3(C)[C@@H](C(C)CCCC(C)C)CC[C@@H]43)C2)c2cc(Cl)c(O)c(C(=O)OCCC)c2)cc(Cl)c1O (some centres not stated) | > 50 | > 50 | > 50 | > 50 |  | 
CN(CCO)CC(=O)CC(O)(C(F)(F)F)C(F)(F)F | > 100 | > 100 | > 100 | 87 | 99.4 | 
N[C@@H]1C[C@H](N)c2c(Cl)sc(Cl)c21 | > 100 | > 100 | > 100 | > 100 | > 100 | 
